According to PubChem BioAssay (NCI):
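How tested: cells in 96-well plates exposed to compound for 48 hours at five concentrations. GI50: concentration for 50% inhibition of growth. TGI: concentration producing complete growth inhibition.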

Columns and labels:
Assay in all cases: NCI anticancer screen, dose series, 48 h
[1] = system: RXF 393 renal
[2] = system: SK-OV-3 ovarian
[3] = system: HS 578T breast
[4] = system: SNB-75 CNS
[5] = system: ACHN renal
[6] = system: SF-295 CNS
[7] = system: SF-539 CNS
[8] = system: OVCAR-5 ovarian
[9] = system: OVCAR-8 ovarian
[10] = system: CCRF-CEM leukemia
[11] = system: HOP-62 NSCLC
[12] = system: LOX IMVI melanoma
[13] = system: CAKI-1 renal
[14] = system: U251 CNS
[15] = system: MOLT-4 leukemia
[16] = system: UACC-257 melanoma
[17] = system: HOP-92 NSCLC
[18] = system: MALME-3M melanoma
[19] = system: MDA-MB-435
[20] = system: SK-MEL-5 melanoma
[21] = system: SK-MEL-2 melanoma
[22] = system: 786-0 renal
[23] = system: SN12C renal
[24] = system: M14 melanoma
[25] = system: RPMI-8226 leukemia
[26] = system: NCI-H23 lung
[27] = system: HCT-15 colon
[28] = system: NCI-H460 lung
[29] = system: HL-60(TB) leukemia
[30] = system: HCC-2998 colon
[31] = system: DU-145 prostate
[32] = system: MCF7 breast
[33] = system: NCI-H522 lung
[34] = system: KM12 colon
[35] = system: OVCAR-4 ovarian
[36] = system: NCI/ADR-RES ovarian
[37] = system: SW-620 colon
[38] = system: NCI-H226 lung
[39] = system: SF-268 CNS
[40] = system: TK-10 renal
[41] = system: MDA-MB-468 breast
[42] = system: K-562 leukemia
[43] = system: COLO 205 colon
[44] = system: IGROV1 ovarian
[45] = system: EKVX NSCLC
[46] = system: PC-3 prostate
[47] = system: OVCAR-3 ovarian
[48] = system: SNB-19 CNS
[49] = system: HT29 colon
[50] = system: SK-MEL-28 melanoma
[51] = system: HCT-116 colon
[52] = system: A498 renal
[53] = system: UACC-62 melanoma
[54] = system: BT-549 breast
[55] = system: A549 NSCLC
[56] = system: T-47D breast

For `COC(=O)C(Cc1ccc(O)c(O)c1)NC(=O)C(CSC/C=C(\C)CCCC(C)CCCC(C)CCCC(C)C)NC(C)=O` (configuration not stated), the GI50 [1] was 16.1 µM, the TGI [1] was 44.5 µM and the GI50 [2] was 17.5 µM. The TGI [2] was 43.2 µM, the GI50 [3] was 27.7 µM and the TGI [3] was over 100 µM. The GI50 [4] was 39.3 µM, the TGI [4] was over 100 µM and the GI50 [5] was 16.5 µM. The TGI [5] was 42.7 µM, the GI50 [6] was 18.3 µM and the TGI [6] was 43.8 µM. It also gave a GI50 [7] of 9.48 µM, a TGI [7] of 26.1 µM and a GI50 [8] of 29.5 µM. It also gave a TGI [8] of over 100 µM, a GI50 [9] of 7.95 µM and a TGI [9] of 32.7 µM. For the same molecule, the GI50 [10] was 3.84 µM, the TGI [10] was over 100 µM and the GI50 [11] was 13.6 µM. It also gave a TGI [11] of 44.4 µM, a GI50 [12] of 10.5 µM and a TGI [12] of over 100 µM. For the same molecule, the GI50 [13] was 31 µM, the TGI [13] was over 100 µM and the GI50 [14] was 2.84 µM. The TGI [14] was 11.2 µM, the GI50 [15] was 3.34 µM and the TGI [15] was over 100 µM. The GI50 [16] was 69.2 µM, the TGI [16] was over 100 µM and the GI50 [17] was 11.9 µM. It also gave a TGI [17] of 30.1 µM, a GI50 [18] of 49.1 µM and a TGI [18] of over 100 µM. For the same molecule, the GI50 [19] was 41.5 µM, the TGI [19] was over 100 µM and the GI50 [20] was 28 µM. For the same molecule, the TGI [20] was over 100 µM, the GI50 [21] was 25.1 µM and the TGI [21] was 90 µM. The GI50 [22] was 1.29 µM, the TGI [22] was 2.76 µM and the GI50 [23] was 30.9 µM. The TGI [23] was over 100 µM, the GI50 [24] was 2.78 µM and the TGI [24] was 12.5 µM. The GI50 [25] was 4.06 µM, the TGI [25] was over 100 µM and the GI50 [26] was 20 µM. It also gave a TGI [26] of 64.2 µM, a GI50 [27] of 4.45 µM and a TGI [27] of over 100 µM. The GI50 [28] was 4.27 µM, the TGI [28] was over 100 µM and the GI50 [29] was 6.67 µM. It also gave a TGI [29] of 41.5 µM, a GI50 [30] of 18 µM and a TGI [30] of over 100 µM. It also gave a GI50 [31] of over 100 µM, a TGI [31] of over 100 µM and a GI50 [32] of 13.5 µM. It also gave a TGI [32] of over 100 µM, a GI50 [33] of 1.82 µM and a TGI [33] of 3.6 µM. The GI50 [34] was 9.05 µM, the TGI [34] was over 100 µM and the GI50 [35] was 25.6 µM. It also gave a TGI [35] of over 100 µM, a GI50 [36] of 33.3 µM and a TGI [36] of over 100 µM. The GI50 [37] was 11.4 µM, the TGI [37] was over 100 µM and the GI50 [38] was 16.2 µM. For the same molecule, the TGI [38] was over 100 µM, the GI50 [39] was 26.7 µM and the TGI [39] was over 100 µM. It also gave a GI50 [40] of 22.3 µM, a TGI [40] of 93.8 µM and a GI50 [41] of 16.9 µM. It also gave a TGI [41] of over 100 µM, a GI50 [42] of 8.06 µM and a TGI [42] of over 100 µM. It also gave a GI50 [43] of 15.5 µM, a TGI [43] of over 100 µM and a GI50 [44] of 10.7 µM. For the same molecule, the TGI [44] was over 100 µM, the GI50 [45] was 30.3 µM and the TGI [45] was over 100 µM. The GI50 [46] was 3 µM, the TGI [46] was 14.2 µM and the GI50 [47] was 5.79 µM. For the same molecule, the TGI [47] was over 100 µM, the GI50 [48] was 3.81 µM and the TGI [48] was 48.4 µM. It also gave a GI50 [49] of 9.19 µM, a TGI [49] of over 100 µM and a GI50 [50] of 49.5 µM. It also gave a TGI [50] of over 100 µM, a GI50 [51] of 1.33 µM and a TGI [51] of 2.81 µM. The GI50 [52] was 30.3 µM, the TGI [52] was over 100 µM and the GI50 [53] was 17.1 µM. It also gave a TGI [53] of 74.8 µM, a GI50 [54] of 1.36 µM and a TGI [54] of 3 µM. For the same molecule, the GI50 [55] was 11.2 µM, the TGI [55] was over 100 µM and the GI50 [56] was 7.78 µM. For the same molecule, the TGI [56] was 45.3 µM.
